For orientation: IC50 means the concentration that gives 50% inhibition. In general, EC50 refers to the concentration at which the effect is half-maximal.

The target of one test is T1, MET D1228N (Homo sapiens, UniProt P08581, D1228N).
T1 construct: purchased Signalchem M52-12IG
The test is described as follows: MET D1228N Mobility Shift Assay. The note with it: biochemical assay IC50; 100 μM ATP, 60 minute kinase reaction. The protocol:
(§1) Small molecule inhibition of MET D1228N kinase activity was evaluated using a fluorescence -based microfluidic mobility shift assay. MET D1228N catalyzes the production of ADP from ATP during phosphoryl transfer to the substrate peptide, FLPeptide30 (5-FAM-KKKKEEIYFFF -CONH2) (Perkin Elmer, 760430). MET D1228N enzyme (Signalchem, M52-12IG) at 0.313 nM was prepared with 10 mM MgCl2 and 1.5 μM substrate peptide in a buffer containing 50 mM HEPES, 1 mM EGTA, 0.01% Brij-35, 0.05% BSA, and 2 mM DTT and pre-incubated at room temperature for 30 min prior to the start of the reaction. 100 μM ATP was added to start the reaction. The mobility shift assay electrophoretically separates the fluorescently labeled peptides (substrate and phosphorylated product) following the 60 minute kinase reaction. The reaction was terminated by addition of 0.5 M EDTA. Both substrate and product were measured and the ratio of these values used to generate % conversion of substrate to product by the LabChip EZ reader (Perkin Elmer). ICso values were calculated using the inhibition of conversion ratio using Dotmatics Knowledge Solutions Studies curve fitting environment (Dotmatics, Bishops Stortford, UK, CM23) and are presented in Table 2.

The next test has as its target T2, MET (Homo sapiens, UniProt P08581).
T2 construct: purchased Carna Biosciences 08-151
The test is described as follows: MET Mobility Shift Assay. The note with it: biochemical assay IC50; 100 μM ATP, 60 minute kinase reaction. The protocol: as §1, with “MET” for “MET D1228N”, “a fluorescence-based” for “a fluorescence -based”, “FLPeptide30 (5-FAM-KKKKEEIYFFF-CONH2)” for “FLPeptide30 (5-FAM-KKKKEEIYFFF -CONH2)”, “MET enzme (Carna Biosciences, 08-151)” for “MET D1228N enzyme (Signalchem, M52-12IG)”, “at 0.625” for “at 0.313”

Another test concerns the target T3, Ba/F3-TPR-MET cells (Homo sapiens, UniProt P08581).
T3 construct: fused on or other part: P12270 (Nucleoprotein TPR)
Kind of test: CellTiter-Glo Cell Viability Assay, Ba/F3-TPR-MET. The format is cell-based. To be noted: 72 hours. The protocol: (§2) Ba/F3-TPR-MET and Ba/F3-TPR-MET-D1228N cells were seeded at 3000 cells per well in a 96 well plate in 90 μL growth media and allowed to incubate overnight at 37° C. with 5% CO2. The following day, compounds were serially diluted from a 10 mM top dose for a 9-point 3-fold dilution curve in DMSO. Following a 100-fold dilution in growth media, a further 10-fold dilution was made into the cell plate for a final volume of 100 μL and 0.1% DMSO. Compounds and cells were incubated together for 72 hours at 37° C. with 5% CO2. The CellTiter-Glo® 2.0 Assay determines the number of viable cells in culture by quantifying ATP, which indicates the presence of metabolically active cells. Luminescence readout is directly proportional to the number of viable cells in culture. CellTiter-Glo reagent (Promega, G9243) and cell plates were allowed to equilibrate to room temperature for at least 15 min, then 100 μL of CellTiter-Glo was added to each well for a 1:1 ratio of reagent to media. Samples were placed on a shaker for 2 min prior to a 30 min incubation at room temperature protected from light. Luminescence was read on a Perkin Elmer Envision plate reader 2105 and used to calculate ICso values within the Dotmatics Knowledge Solutions Studies curve fitting environment (Dotmatics, Bishops Stortford, UK, CM23) and are presented in Table 2.
A general note: ATP-based viability assays read luminescence as a measure of living cells.

Test [1] has as its target T4, Ba/F3-TPR-MET-D1228N cells (Homo sapiens, UniProt P08581, D1228N, cells depend on it).
T4 construct: fused on or other part: P12270 (Nucleoprotein TPR)
The test is described as follows: CellTiter-Glo Cell Viability Assay, Ba/F3-TPR-MET-D1228N. To be noted: 72 hours. Type of test: cell-based. As to the method:
as §2

T4 sequence (P08581 whole entry D1228N, the tested form may be a part): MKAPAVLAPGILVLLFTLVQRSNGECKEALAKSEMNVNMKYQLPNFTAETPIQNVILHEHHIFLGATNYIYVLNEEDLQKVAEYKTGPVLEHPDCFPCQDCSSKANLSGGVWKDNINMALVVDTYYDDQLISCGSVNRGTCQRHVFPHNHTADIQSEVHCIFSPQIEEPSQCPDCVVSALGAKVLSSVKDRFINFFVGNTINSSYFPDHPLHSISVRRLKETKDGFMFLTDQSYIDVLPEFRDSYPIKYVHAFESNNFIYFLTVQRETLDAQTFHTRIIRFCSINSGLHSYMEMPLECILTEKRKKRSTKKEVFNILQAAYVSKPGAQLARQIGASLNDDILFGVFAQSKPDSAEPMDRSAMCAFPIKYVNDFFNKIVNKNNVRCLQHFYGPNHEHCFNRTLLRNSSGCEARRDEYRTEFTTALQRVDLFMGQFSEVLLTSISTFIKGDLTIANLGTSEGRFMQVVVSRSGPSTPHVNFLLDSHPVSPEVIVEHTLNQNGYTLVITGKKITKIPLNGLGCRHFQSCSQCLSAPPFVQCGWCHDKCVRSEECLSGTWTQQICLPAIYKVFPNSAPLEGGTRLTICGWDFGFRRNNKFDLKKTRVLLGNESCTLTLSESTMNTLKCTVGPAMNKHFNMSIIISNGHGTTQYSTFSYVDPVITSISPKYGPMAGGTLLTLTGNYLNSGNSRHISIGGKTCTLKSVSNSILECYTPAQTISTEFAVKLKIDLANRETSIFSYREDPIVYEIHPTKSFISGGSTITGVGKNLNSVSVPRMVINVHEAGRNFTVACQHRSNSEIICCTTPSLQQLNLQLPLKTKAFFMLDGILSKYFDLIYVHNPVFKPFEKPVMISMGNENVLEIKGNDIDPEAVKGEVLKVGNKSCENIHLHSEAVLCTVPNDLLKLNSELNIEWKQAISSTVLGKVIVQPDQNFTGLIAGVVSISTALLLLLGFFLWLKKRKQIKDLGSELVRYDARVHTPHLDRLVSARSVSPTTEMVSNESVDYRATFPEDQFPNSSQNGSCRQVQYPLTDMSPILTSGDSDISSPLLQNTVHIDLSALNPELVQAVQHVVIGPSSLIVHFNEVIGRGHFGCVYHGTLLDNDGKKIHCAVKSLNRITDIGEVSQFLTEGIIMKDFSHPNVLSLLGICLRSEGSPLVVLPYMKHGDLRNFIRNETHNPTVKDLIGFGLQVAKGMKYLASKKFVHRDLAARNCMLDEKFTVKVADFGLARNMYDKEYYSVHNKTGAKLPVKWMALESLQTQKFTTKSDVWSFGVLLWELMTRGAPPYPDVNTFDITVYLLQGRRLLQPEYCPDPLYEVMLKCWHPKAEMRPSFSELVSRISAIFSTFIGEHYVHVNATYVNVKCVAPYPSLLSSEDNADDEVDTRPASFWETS
T2 sequence (P08581 25-1390): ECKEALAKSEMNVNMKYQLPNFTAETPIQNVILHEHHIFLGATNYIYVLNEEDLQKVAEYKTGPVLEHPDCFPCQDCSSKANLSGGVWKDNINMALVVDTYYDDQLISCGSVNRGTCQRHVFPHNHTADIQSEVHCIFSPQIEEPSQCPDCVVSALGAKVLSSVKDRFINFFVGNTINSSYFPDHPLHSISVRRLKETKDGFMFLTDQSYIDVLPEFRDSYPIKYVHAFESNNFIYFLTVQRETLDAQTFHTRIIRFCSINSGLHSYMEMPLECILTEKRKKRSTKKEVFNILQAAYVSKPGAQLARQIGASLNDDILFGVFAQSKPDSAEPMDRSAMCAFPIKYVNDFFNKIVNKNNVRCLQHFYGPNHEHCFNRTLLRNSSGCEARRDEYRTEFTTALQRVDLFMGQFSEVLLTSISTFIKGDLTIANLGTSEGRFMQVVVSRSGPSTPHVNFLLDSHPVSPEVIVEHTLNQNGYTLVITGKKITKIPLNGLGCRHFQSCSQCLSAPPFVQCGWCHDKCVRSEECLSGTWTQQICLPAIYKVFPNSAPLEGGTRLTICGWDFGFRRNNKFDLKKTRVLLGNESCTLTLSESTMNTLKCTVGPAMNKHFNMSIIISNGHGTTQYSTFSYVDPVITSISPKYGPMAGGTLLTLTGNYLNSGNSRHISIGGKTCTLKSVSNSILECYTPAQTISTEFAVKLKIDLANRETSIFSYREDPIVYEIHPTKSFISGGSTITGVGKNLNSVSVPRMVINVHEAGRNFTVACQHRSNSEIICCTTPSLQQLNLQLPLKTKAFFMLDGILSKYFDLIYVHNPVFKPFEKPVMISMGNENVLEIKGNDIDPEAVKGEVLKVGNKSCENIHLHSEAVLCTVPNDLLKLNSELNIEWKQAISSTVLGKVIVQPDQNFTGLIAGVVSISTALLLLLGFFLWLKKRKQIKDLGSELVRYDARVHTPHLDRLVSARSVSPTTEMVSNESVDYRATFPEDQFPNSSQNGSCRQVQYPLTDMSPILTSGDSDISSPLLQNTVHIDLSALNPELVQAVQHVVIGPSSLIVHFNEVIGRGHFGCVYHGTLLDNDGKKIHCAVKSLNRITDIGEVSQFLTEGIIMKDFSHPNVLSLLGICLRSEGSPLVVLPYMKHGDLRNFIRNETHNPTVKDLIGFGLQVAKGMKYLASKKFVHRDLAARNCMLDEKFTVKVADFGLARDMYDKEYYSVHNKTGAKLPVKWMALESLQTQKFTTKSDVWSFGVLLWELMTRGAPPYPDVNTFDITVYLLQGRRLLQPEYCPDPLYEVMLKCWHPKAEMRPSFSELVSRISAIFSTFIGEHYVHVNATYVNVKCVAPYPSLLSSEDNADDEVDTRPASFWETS
T1 sequence (P08581 25-1390 D1228N): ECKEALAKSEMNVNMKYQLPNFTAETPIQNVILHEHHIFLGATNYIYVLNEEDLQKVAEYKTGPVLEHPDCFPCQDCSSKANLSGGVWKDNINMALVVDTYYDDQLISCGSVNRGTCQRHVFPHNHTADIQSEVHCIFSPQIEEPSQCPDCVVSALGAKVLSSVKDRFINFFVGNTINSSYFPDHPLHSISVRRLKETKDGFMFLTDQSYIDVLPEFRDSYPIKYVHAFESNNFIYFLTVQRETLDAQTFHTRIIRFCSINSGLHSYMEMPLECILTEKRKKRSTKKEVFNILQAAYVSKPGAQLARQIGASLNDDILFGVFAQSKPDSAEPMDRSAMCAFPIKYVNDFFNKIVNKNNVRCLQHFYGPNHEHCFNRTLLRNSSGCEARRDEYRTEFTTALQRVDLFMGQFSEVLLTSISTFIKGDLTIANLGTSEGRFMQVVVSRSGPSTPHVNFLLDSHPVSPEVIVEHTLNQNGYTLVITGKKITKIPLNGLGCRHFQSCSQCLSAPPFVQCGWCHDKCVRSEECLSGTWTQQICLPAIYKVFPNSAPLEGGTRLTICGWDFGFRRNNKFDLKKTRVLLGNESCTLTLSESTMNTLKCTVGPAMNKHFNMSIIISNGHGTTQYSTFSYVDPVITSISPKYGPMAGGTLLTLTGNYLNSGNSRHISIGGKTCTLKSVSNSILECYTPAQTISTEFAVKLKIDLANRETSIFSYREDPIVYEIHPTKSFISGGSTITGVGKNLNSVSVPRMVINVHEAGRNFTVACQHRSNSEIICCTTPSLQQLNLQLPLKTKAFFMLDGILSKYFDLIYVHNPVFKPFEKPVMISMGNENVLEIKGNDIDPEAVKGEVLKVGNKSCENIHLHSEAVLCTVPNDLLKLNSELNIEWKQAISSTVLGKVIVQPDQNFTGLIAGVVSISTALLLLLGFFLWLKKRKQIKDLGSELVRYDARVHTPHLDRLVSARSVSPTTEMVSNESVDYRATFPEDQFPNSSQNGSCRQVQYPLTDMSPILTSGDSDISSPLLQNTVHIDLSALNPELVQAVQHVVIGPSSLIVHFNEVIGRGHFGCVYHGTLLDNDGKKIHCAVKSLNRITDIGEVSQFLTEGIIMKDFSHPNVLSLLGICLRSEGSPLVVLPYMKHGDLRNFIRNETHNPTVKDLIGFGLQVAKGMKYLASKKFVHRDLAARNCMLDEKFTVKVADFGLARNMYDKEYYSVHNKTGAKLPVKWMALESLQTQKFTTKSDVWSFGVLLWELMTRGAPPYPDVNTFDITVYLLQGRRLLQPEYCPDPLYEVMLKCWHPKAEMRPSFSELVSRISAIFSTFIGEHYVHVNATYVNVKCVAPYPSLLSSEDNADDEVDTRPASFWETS

As to `CNCCOc1cc2nccc(Oc3c(F)cc(NC(=O)c4cnccc4OCCCF)cc3F)c2cc1OC` [Example 58, N-[3,5-difluoro-4-({6-methoxy-7-[2-(methylamino)ethoxy]quinolin-4-yl}oxy)phenyl]-4-(3-fluoropropoxy)pyridine-3-carboxamide], the IC50 at MET D1228N and at MET was ≤ 100 nM each time. Besides, the EC50 (on Ba/F3-TPR-MET cells; in test [1]) was ≤ 100 nM in each case.
As to `CCCOc1ccncc1C(=O)Nc1ccc(Oc2ccnc3cc(OCCNC)c(OC)cc23)c(F)c1F` [Example 82, N-[2,3-difluoro-4-({6-methoxy-7-[2-(methylamino)ethoxy]quinolin-4-yl}oxy)phenyl]-4-propoxypyridine-3-carboxamide], the IC50 on MET D1228N and at MET was ≤ 100 nM throughout. The EC50 (on Ba/F3-TPR-MET cells; in test [1]) was 100 to 1000 nM in each case.
Turning to `COc1ccncc1C(=O)Nc1cc(F)c(Oc2ccnc3cc(OCC(C)(C)O)ccc23)c(F)c1` [Example 40, N-(3,5-difluoro-4-{[7-(2-hydroxy-2-methylpropoxy)quinolin-4-yl]oxy}phenyl)-4-methoxypyridine-3-carboxamide], the IC50 at MET D1228N and on MET was ≤ 100 nM throughout. Besides, the EC50 (on Ba/F3-TPR-MET cells; in test [1]) was 100 to 1000 nM each time.
Take `COc1cc2nccc(Oc3c(F)cc(NC(=O)c4cnccc4OC)cc3F)c2cc1OC1(CO)CC1` [Example 132, N-(3,5-difluoro-4-((6-(1-(hydroxymethyl)cyclopropoxy)-7-methoxyquinolin-4-yl)oxy)phenyl)-4-methoxynicotinamide]: the IC50 on MET D1228N and at MET was ≤ 100 nM each time. Moreover, the EC50 (on Ba/F3-TPR-MET cells; in test [1]) was ≤ 100 nM each time.
Take `O=C(Nc1cc(F)c(Oc2ccnc3cc(OC4CNC4)ccc23)c(F)c1)c1cnccc1OC1CC1` [Example 89, N-(4-{[7-(azetidin-3-yloxy)quinolin-4-yl]oxy}-3,5-difluorophenyl)-4-cyclopropoxypyridine-3-carboxamide]: the IC50 on MET D1228N and on MET was ≤ 100 nM each time. For the same molecule, the half-maximal effective concentration (EC50) (on Ba/F3-TPR-MET cells; in test [1]) was 100 to 1000 nM throughout.
With `CCCOc1ccncc1C(=O)Nc1cc(F)c(Oc2ccnc3cc(OCCNC)c(OC)cc23)c(F)c1` [Example 56, N-[3,5-difluoro-4-({6-methoxy-7-[2-(methylamino)ethoxy]quinolin-4-yl}oxy)phenyl]-4-propoxypyridine-3-carboxamide], the IC50 on MET D1228N and on MET was ≤ 100 nM throughout. Besides, the EC50 (at Ba/F3-TPR-MET cells; in test [1]) was ≤ 100 nM throughout.
For the molecule `CNCCOc1cc2nccc(Oc3c(F)cc(NC(=O)c4cnccc4OCC(C)(C)O)cc3F)c2cc1OC` [Example 66, N-(3,5-difluoro-4-((6-methoxy-7-(2-(methylamino)ethoxy)quinolin-4-yl)oxy)phenyl)-4-(2-hydroxy-2-methylpropoxy)pyridine-3-carboxamide], the IC50 on MET D1228N and at MET was ≤ 100 nM in each case. The EC50 (at Ba/F3-TPR-MET cells; in test [1]) was 100 to 1000 nM in each case.
On to `COc1cc2nccc(Oc3c(F)cc(NC(=O)c4c(OC5CC5)ccnc4F)cc3F)c2nc1OC` [Example 144, 4-cyclopropoxy-N-(4-((6,7-dimethoxy-1,5-naphthyridin-4-yl)oxy)-3,5-difluorophenyl)-2-fluoropyridine-3-carboxamide], for which the IC50 on MET D1228N and at MET was ≤ 100 nM throughout. The EC50 (on Ba/F3-TPR-MET cells; in test [1]) was ≤ 100 nM in each case.
Take `CNCCOc1cc2nccc(Oc3c(F)cc(NC(=O)c4cnccc4OCCO)cc3F)c2cc1OC` [Example 63, N-[3,5-difluoro-4-({6-methoxy-7-[2-(methylamino)ethoxy]quinolin-4-yl}oxy)phenyl]-4-(2-hydroxyethoxy)pyridine-3-carboxamide]: the IC50 at MET D1228N and on MET was ≤ 100 nM throughout. In addition, the half-maximal effective concentration (EC50) (at Ba/F3-TPR-MET cells; in test [1]) was 100 to 1000 nM throughout.
In the case of `CNCCOc1cc2nccc(Oc3c(F)cc(NC(=O)c4cnccc4OC(F)F)cc3F)c2cc1OC` [Example 47, N-(3,5-difluoro-4-((6-methoxy-7-(2-(methylamino)ethoxy)quinolin-4-yl)oxy)phenyl)-4-(difluoromethoxy)pyridine-3-carboxamide], the concentration for half-maximal inhibition (IC50) at MET D1228N and at MET was ≤ 100 nM in each case. For the same molecule, the EC50 (at Ba/F3-TPR-MET cells; in test [1]) was 100 to 1000 nM each time.
Regarding `COc1cc2c(Oc3c(F)cc(NC(=O)c4cnccc4OC)cc3F)ccnc2cc1OCCCN1CCOCC1` [Example 30, N-(3,5-difluoro-4-((6-methoxy-7-(3-morpholinopropoxy)quinolin-4-yl)oxy)phenyl)-4-methoxypyridine-3-carboxamide], the IC50 on MET D1228N and on MET was ≤ 100 nM throughout. Further, the EC50 (on Ba/F3-TPR-MET cells; in test [1]) was ≤ 100 nM throughout.
With `CCCOc1ccncc1C(=O)Nc1cc(F)c(Oc2ccnc3cc(OCCNC)c(OC)cc23)cc1F` [Example 52, N-(2,5-difluoro-4-((6-methoxy-7-(2-(methylamino)ethoxy)quinolin-4-yl)oxy)phenyl)-4-propoxypyridine-3-carboxamide], the IC50 on MET D1228N and at MET was ≤ 100 nM throughout. Also, the EC50 (at Ba/F3-TPR-MET cells; in test [1]) was 100 to 1000 nM throughout.
In the case of `COc1cc2c(Oc3c(F)cc(NC(=O)c4cnccc4OC4CC4)cc3F)ccnc2cc1OC[C@@H](C)O` [Example 99, 4-cyclopropoxy-N-[3,5-difluoro-4-({7-[(2R)-2-hydroxypropoxy]-6-methoxyquinolin-4-yl}oxy)phenyl]pyridine-3-carboxamide], the IC50 at MET D1228N and at MET was ≤ 100 nM throughout. Besides, the EC50 (on Ba/F3-TPR-MET cells; in test [1]) was ≤ 100 nM throughout.
In the case of `COc1cc2c(Oc3c(F)cc(NC(=O)c4c(OCC(F)F)ccnc4F)cc3F)ccnc2cc1OCCO` [Example 141, N-(3,5-difluoro-4-((7-(2-hydroxyethoxy)-6-methoxyquinolin-4-yl)oxy)phenyl)-4-(2,2-difluoroethoxy)-2-fluoropyridine-3-carboxamide], the IC50 on MET D1228N and at MET was ≤ 100 nM throughout. The EC50 (on Ba/F3-TPR-MET cells; in test [1]) was ≤ 100 nM throughout.
Regarding `CNCCOc1cc2ncnc(Oc3c(F)cc(NC(=O)c4cnccc4OC)cc3F)c2cc1OC` [Example 8, N-(3,5-difluoro-4-((6-methoxy-7-(2-(methylamino)ethoxy)quinazolin-4-yl)oxy)phenyl)-4-methoxypyridine-3-carboxamide], the IC50 at MET D1228N and on MET was ≤ 100 nM in each case. Further, the EC50 (at Ba/F3-TPR-MET cells; in test [1]) was 100 to 1000 nM in each case.
Regarding `COc1ccncc1C(=O)Nc1cc(F)c(Oc2ccnc3ccc(O[C@@H](C)CO)cc23)c(F)c1` [Example 130, (S)-N-(3,5-difluoro-4-((6-((1-hydroxypropan-2-yl)oxy)quinolin-4-yl)oxy)phenyl) -4-methoxynicotinamide], the IC50 on MET D1228N and on MET was ≤ 100 nM throughout. Further, the figures for the EC50 (at Ba/F3-TPR-MET cells; in test [1]) were 100 to 1000 nM and ≤ 100 nM, respectively.
